Data on 5 molecules can be found in article PMC6127216, “The quaternary structure of Thermus thermophilus aldehyde dehydrogenase is stabilized by an evolutionary distinct C-terminal arm extension” (Scientific Reports, 2018).

For series [1], the target named is T1, ALDHTt515 (Thermus thermophilus, UniProt Q72KD3).
T1 construct: gene TT_C0513; C-terminal truncation lacking the last 15 of 530 residues; tetramer; not the natural 515-residue HB8 enzyme
Nature of the series: X-ray crystal structure. The note with it: co-crystallised with 1 mM NADP+; cofactor binding cleft.

For series [2], the target named is native aldehyde dehydrogenase from Thermus thermophilus (ALDHTt native) (Thermus thermophilus). Description: crystal structure; sitting-drop vapor diffusion at 20 °C against 50 mM MOPS pH 7.5 and 1.2 M ammonium sulfate; space group P4(1)2(1)2, two copies in the asymmetric unit, tetramer by NCS and crystallographic symmetry; recombinant proteins in the same conditions (ALDHTt515 with 1 mM NADP+, ALDHTt530 with 50 mM propanal).

For another series, the target named is T2, ALDHTt508 (Thermus thermophilus, UniProt Q72KD3).
T2 construct: gene TT_C0513; C-terminal truncation after residue 508 of 530; tetramer
Nature of the series: fluorescence of NADH formation. Format: biochemical. The following applies: 0.4 mM NAD+, 1 mM hexanal, pH 8.0, 50 °C; turnover only.

For series [3], the target named is T1, ALDHTt515. Description: fluorescence of NADH formation. Format: biochemical. The note with it: 0.4 mM NAD+, 1 mM hexanal, pH 8.0, 50 °C; turnover only.
In series [4] the target is T3, ALDHTt530 (recombinant wild type ALDHTt) (Thermus thermophilus, UniProt Q72KD3).
T3 construct: gene TT_C0513; full length, 530 residues; homotetramer; 6FJX is the native protein
T3 sequence (Q72KD3 1-530): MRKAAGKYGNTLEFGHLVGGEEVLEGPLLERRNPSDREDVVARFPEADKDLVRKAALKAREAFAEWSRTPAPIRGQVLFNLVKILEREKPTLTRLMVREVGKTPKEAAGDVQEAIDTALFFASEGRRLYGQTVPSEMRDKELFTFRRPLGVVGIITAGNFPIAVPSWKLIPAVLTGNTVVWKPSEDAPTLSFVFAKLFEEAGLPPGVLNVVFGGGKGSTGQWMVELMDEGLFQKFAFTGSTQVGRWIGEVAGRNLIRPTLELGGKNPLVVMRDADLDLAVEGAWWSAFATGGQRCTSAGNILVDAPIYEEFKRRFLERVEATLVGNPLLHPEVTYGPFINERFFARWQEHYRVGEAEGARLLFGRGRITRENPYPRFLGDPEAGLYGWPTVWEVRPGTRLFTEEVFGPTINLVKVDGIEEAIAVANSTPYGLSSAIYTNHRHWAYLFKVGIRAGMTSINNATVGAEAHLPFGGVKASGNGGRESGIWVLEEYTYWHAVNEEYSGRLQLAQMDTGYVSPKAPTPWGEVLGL
Nature of the series: X-ray crystal structure. Format: binding. The following applies: crystals with 50 mM propanal; substrate entry channel, anchor loop.

Substrate in series [5]: CCC=O
Nature of the series: fluorescence of NADH formation. Format: biochemical, Thermus thermophilus. The note with it: 25 °C, NAD+ as cofactor, pH 8.0 (standard assay).

For the molecule `NC(=O)c1ccc[n+]([C@@H]2O[C@H](COP(=O)(O)OP(=O)(O)OC[C@H]3O[C@@H](n4cnc5c(N)ncnc54)[C@H](OP(=O)(O)O)[C@@H]3O)[C@@H](O)[C@H]2O)c1` [NADP^+], on ALDHTt515 [1], the X-ray crystal structure result was “The co-crystal structure of ALDHTt515 was solved with NADP^+ bound”. As to “native aldehyde dehydrogenase from Thermus thermophilus (ALDHTt native) (enzyme)”, the stoichiometry N in series [2] amounted to 4. In the case of `NC(=O)c1ccc[n+]([C@@H]2O[C@H](COP(=O)(O)OP(=O)(O)OC[C@H]3O[C@@H](n4cnc5c(N)ncnc54)[C@H](O)[C@@H]3O)[C@@H](O)[C@H]2O)c1` [NAD^+], the “fluorescence of NADH formation” value is “both truncated mutants ALDHTt508 and ALDHTt515 were slightly more active” on ALDHTt508; “both truncated mutants ALDHTt508 and ALDHTt515 were slightly more active” at ALDHTt515 [3]. As to `CCC(=O)O` [propanoic acid], the X-ray crystal structure entry in series [4] was “yielded a structure with a product molecule, propanoic acid, in monomer A and B”.

B1: ALDHTt530 (recombinant wild type ALDHTt) (Thermus thermophilus HB27) (protein)
chain: MRKAAGKYGNTLEFGHLVGGEEVLEGPLLERRNPSDREDVVARFPEADKDLVRKAALKAREAFAEWSRTPAPIRGQVLFNLVKILEREKPTLTRLMVREVGKTPKEAAGDVQEAIDTALFFASEGRRLYGQTVPSEMRDKELFTFRRPLGVVGIITAGNFPIAVPSWKLIPAVLTGNTVVWKPSEDAPTLSFVFAKLFEEAGLPPGVLNVVFGGGKGSTGQWMVELMDEGLFQKFAFTGSTQVGRWIGEVAGRNLIRPTLELGGKNPLVVMRDADLDLAVEGAWWSAFATGGQRCTSAGNILVDAPIYEEFKRRFLERVEATLVGNPLLHPEVTYGPFINERFFARWQEHYRVGEAEGARLLFGRGRITRENPYPRFLGDPEAGLYGWPTVWEVRPGTRLFTEEVFGPTINLVKVDGIEEAIAVANSTPYGLSSAIYTNHRHWAYLFKVGIRAGMTSINNATVGAEAHLPFGGVKASGNGGRESGIWVLEEYTYWHAVNEEYSGRLQLAQMDTGYVSPKAPTPWGEVLGL
notes: full length, 530 residues; homotetramer; 6FJX is the native protein
Consider B1, for which the Km in series [5] turned out to be 2760 µM.

In general, stoichiometry N refers to the number of molecules, sites or subunits per partner or assembly. One may read the Km as the substrate concentration at which the rate is half of its maximum.
